From ChEMBL document CHEMBL1148074, “Thalifaberidine, a cytotoxic aporphine-benzylisoquinoline alkaloid from Thalictrum faberi” (J Nat Prod, 1994)
≈ marks a conversion by molar mass, not a printed value. Calls of active or inactive are those of the source. The rule behind the calls is not given here.

Columns and labels:
Plasmodium falciparum [1] = assay: Antimalarial activity against chloroquine-sensitive Plasmodium falciparum D6 infected human erythrocytes after 24 hrs by [3H]hypoxanthine uptake; type: functional; details: read-out: ED50 (the source's name)
Plasmodium falciparum [2] = assay: Antimalarial activity against chloroquine-resistant Plasmodium falciparum W2 infected human erythrocytes after 24 hrs by [3H]hypoxanthine uptake; type: functional; details: read-out: ED50 (the source's name)
[3] = Selectivity index, ratio of ED50 for human KB cells to ED50 for chloroquine-sensitive Plasmodium falciparum D6; type: toxicity, cell-based; details: read-out: Selectivity Index
[4] = Selectivity index, ratio of ED50 for human KB cells to ED50 for chloroquine-resistant Plasmodium falciparum W2; type: toxicity, cell-based; details: read-out: Selectivity Index
[5] = Cytotoxicity against human BCA1 cells after 3 days by SRB assay; type: functional; details: BCA1, 72 h, read-out: ED50 (the source's name)
HT-1080 = assay: Cytotoxicity against human HT1080 cells after 3 days by SRB assay; type: functional; details: HT-1080, 72 h, read-out: ED50 (the source's name)
Lu1 = assay: Cytotoxicity against human Lu1 cells after 3 days by SRB assay; type: functional; details: Lu1, 72 h, read-out: ED50 (the source's name)
Col2 = assay: Cytotoxicity against human Col2 cells after 3 days by SRB assay; type: functional; details: Col2, 72 h, read-out: ED50 (the source's name)
KB = assay: Cytotoxicity against human KB cells after 3 days by SRB assay; type: functional; details: 72 h, read-out: ED50 (the source's name)
[6] = Cytotoxicity against human KBVIN cells in presence of 1 ug/ml vinblastine after 3 days by SRB assay; type: functional; details: 72 h, read-out: ED50 (the source's name)
[7] = Cytotoxicity against human KBVIN cells after 3 days by SRB assay; type: functional; details: 72 h, read-out: ED50 (the source's name)
P388 = assay: Cytotoxicity against mouse P388 cells after 3 days by SRB assay; type: functional; details: P388, 72 h, read-out: ED50 (the source's name)
A-431 = assay: Cytotoxicity against human A431 cells after 3 days by SRB assay; type: functional; details: A-431, 72 h, read-out: ED50 (the source's name)
LNCaP = assay: Cytotoxicity against human LNCAP cells after 3 days by SRB assay; type: functional; details: 72 h, read-out: ED50 (the source's name)
ZR-75-1 = assay: Cytotoxicity against human ZR-75-1 cells after 3 days by SRB assay; type: functional; details: ZR-75-1, 72 h, read-out: ED50 (the source's name)
[8] = Cytotoxicity against human U373 cells after 3 days by SRB assay; type: functional, U-373MG ATCC; details: U373 MG, 72 h, read-out: ED50 (the source's name)
[9] = molecular target: Human immunodeficiency virus type 1 reverse transcriptase (Human immunodeficiency virus 1) (UniProt Q72547); assay: Inhibition of HIV1 reverse transcriptase

SMILES | EC50 (Plasmodium falciparum [1]) | EC50 (Plasmodium falciparum [2]) | selectivity ratio [3] | selectivity ratio [4] | EC50 [5] | EC50 (HT-1080) | EC50 (Lu1) | EC50 (Col2) | EC50 (KB) | EC50 [6] | EC50 [7] | EC50 (P388) | EC50 (A-431) | EC50 (LNCaP) | EC50 (ZR-75-1) | EC50 [8] | Activity [9]
OC(c1cc(C(F)(F)F)nc2c(C(F)(F)F)cccc12)C1CCCCN1 (centres undefined) [MEFLOQUINE] | 0.0089 µg/mL (≈ 0.0235 µM) | 0.0019 µg/mL (≈ 0.00502 µM) | 393 | 1840 | – | – | – | – | – | – | – | – | – | – | – | – | –
CCN(CC)CCCC(C)Nc1ccnc2cc(Cl)ccc12 (centres undefined) [CHLOROQUINE] | 0.0035 µg/mL (≈ 0.0109 µM) | – | – | – | – | – | – | – | – | – | – | – | – | – | – | – | –
C=C[C@H]1CN2CC[C@H]1C[C@H]2[C@H](O)c1ccnc2ccc(OC)cc12 [QUININE] | 0.0208 µg/mL (≈ 0.0641 µM) | 0.0592 µg/mL (≈ 0.182 µM) | > 960 | > 340 | – | – | – | – | – | – | – | – | – | – | – | – | –
COc1cc2c(cc1O)CCN(C)[C@H]2Cc1ccc(Oc2c(O)c(OC)cc3c2C[C@H]2c4c(c(OC)c(OC)c(OC)c4-3)CCN2C)cc1 [THALIFABERIDINE] | 0.88 µg/mL (≈ 1.32 µM) | 0.122 µg/mL (≈ 0.182 µM) | 6.5 | 47 | 3.9 µg/mL (≈ 5.83 µM) | 3.1 µg/mL (≈ 4.64 µM) | 5.4 µg/mL (≈ 8.07 µM) | 3.2 µg/mL (≈ 4.78 µM) | 5.7 µg/mL (≈ 8.52 µM) | 17.7 µg/mL | 7.8 µg/mL (≈ 11.7 µM) | 0.6 µg/mL (≈ 0.897 µM) | 6.7 µg/mL (≈ 10 µM) | 3.7 µg/mL (≈ 5.53 µM) | 1.5 µg/mL (≈ 2.24 µM) | 1.5 µg/mL (≈ 2.24 µM) | inactive
COc1cc2c(cc1OC)[C@H](Cc1ccc(Oc3c4c(cc(OC)c3OC)-c3c(OC)c(OC)c(OC)c5c3[C@H](C4)N(C)CC5)cc1)N(C)CC2 [THALIFABERINE] | 5.09 µg/mL (≈ 7.3 µM) | 0.441 µg/mL (≈ 0.633 µM) | 3 | 35 | 5.4 µg/mL (≈ 7.75 µM) | 2.6 µg/mL (≈ 3.73 µM) | 16.3 µg/mL (≈ 23.4 µM) | 1.6 µg/mL (≈ 2.3 µM) | 15.5 µg/mL (≈ 22.2 µM) | 4.6 µg/mL | 1.2 µg/mL (≈ 1.72 µM) | 1.3 µg/mL (≈ 1.87 µM) | 4.9 µg/mL (≈ 7.03 µM) | 5.7 µg/mL (≈ 8.18 µM) | 3.7 µg/mL (≈ 5.31 µM) | 4.1 µg/mL (≈ 5.88 µM) | inactive
COc1cc2c(c(O)c1OC)CCN(C)[C@H]2Cc1ccc(Oc2c3c(cc(OC)c2OC)-c2c(OC)c(OC)c(O)c4c2[C@H](C3)N(C)CC4)cc1 [THALIFASINE] | 0.238 µg/mL (≈ 0.341 µM) | 0.0493 µg/mL (≈ 0.0705 µM) | 19 | 93 | 2.4 µg/mL (≈ 3.43 µM) | 1.3 µg/mL (≈ 1.86 µM) | 2 µg/mL (≈ 2.86 µM) | 2.1 µg/mL (≈ 3.01 µM) | 4.6 µg/mL (≈ 6.58 µM) | 5.7 µg/mL | 1.6 µg/mL (≈ 2.29 µM) | 1.2 µg/mL (≈ 1.72 µM) | 8.2 µg/mL (≈ 11.7 µM) | 3.3 µg/mL (≈ 4.72 µM) | 1.2 µg/mL (≈ 1.72 µM) | 2.2 µg/mL (≈ 3.15 µM) | inactive
C[C@@H]1CC[C@H]2[C@@H](C)C(=O)O[C@@H]3O[C@@]4(C)CC[C@@H]1[C@]32OO4 [ARTEMISININ] | 0.0011 µg/mL (≈ 0.0039 µM) | 0.0004 µg/mL (≈ 0.00142 µM) | > 1820 | > 50000 | – | – | – | – | – | – | – | – | – | – | – | – | –
